From ChEMBL document CHEMBL1201862, “PubChem BioAssay data set” (2004)
The source made the active and inactive calls.

Key:
[1] = biological target: Mitogen-activated protein kinase 10 (Homo sapiens, UniProt P53779); assay: Dose response biochemical screening assay for inhibitors of c-Jun N-Terminal Kinase 3 (JNK3). [Related pubchem assays: 746 ]
[2] = HEp-2 cell cytotoxicity, dose response, cytotoxicity control for RSV inhibitor project, HTS (AID 2410); type: functional; conditions: human respiratory syncytial virus
[3] = cytotoxicity in HPDE-C7 cells, cell-based, fluorescence, HTS (AID 430); type: functional; conditions: Homo sapiens
[4] = inhibitors of intracellular T. cruzi replication, confirmation, NIH3T3 host cells, beta-gal luminescence (AID 2044); type: functional, cell-based;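 further: intracellular parasites grown in NIH/3T3 mouse fibroblasts as host cells; luminescent beta-galactosidase reporter signal from transgenic T. cruzi replicating inside host cells; inhibitors lower the luminescence signal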
[5] = cytotoxicity in KRAS-transformed pancreatic duct cells, primary screen, cell-based, fluorescence, HTS (AID 431); type: functional; conditions: Homo sapiens;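 further: cell line used: HPDE-C7K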
[6] = cytotoxicity toward NIH3T3 fibroblasts, dose response, counter-screen, cell-based, ATP luminescence, mouse fibroblasts (AID 2010); type: functional;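 further: cells exposed to compound for about 90 hours before reading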
[7] = biological target: T1, Heat shock factor protein 1 (Mus musculus, UniProt P38532); assay: HSF1 potentiators in luciferase reporter cells, confirmation, cell-based, NIH3T3, luminescence, dose retest (AID 435004); type: functional;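 further: stress induced by proteasome inhibitor MG132 added 30 min after compound; luciferase reporter driven by HSF1 response element in NIH3T3 cells; actives raise luminescence as potentiators of the MG132 stress response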
T1 sequence (P38532 whole entry): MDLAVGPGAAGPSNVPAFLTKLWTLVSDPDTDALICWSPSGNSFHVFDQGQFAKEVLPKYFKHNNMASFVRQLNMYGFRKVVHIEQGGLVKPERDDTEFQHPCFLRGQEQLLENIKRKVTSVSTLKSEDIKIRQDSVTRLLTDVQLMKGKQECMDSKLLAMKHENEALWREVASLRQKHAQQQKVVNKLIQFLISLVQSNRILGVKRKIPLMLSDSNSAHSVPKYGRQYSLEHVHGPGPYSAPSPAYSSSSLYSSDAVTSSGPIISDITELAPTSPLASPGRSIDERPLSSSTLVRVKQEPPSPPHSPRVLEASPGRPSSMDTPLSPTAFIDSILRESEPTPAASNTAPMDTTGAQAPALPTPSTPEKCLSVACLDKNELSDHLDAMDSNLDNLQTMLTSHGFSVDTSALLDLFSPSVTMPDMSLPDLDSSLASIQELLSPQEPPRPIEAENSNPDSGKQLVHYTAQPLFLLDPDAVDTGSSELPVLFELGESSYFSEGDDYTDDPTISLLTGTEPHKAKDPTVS

[8] = inhibitors of firefly luciferase expression or activity, dose response, H4 neuroglioma cells, luminescence (AID 1990); type: functional, cell-based
[9] = Luminescence Cell-Based Dose Response HTS to Identify Inhibitors of 5'UTR Stem-Loop Driven Prion Protein mRNA Translation in H4 Neuroglioblastoma Cells. [Related pubchem assays: 1827 (Project Summary), 1813 (Primary HTS)]; type: functional
[10] = inhibitors of SNCA 5'UTR-driven reporter translation, confirmation, H4 neuroglioma cells, luminescence (AID 1988); type: functional, cell-based
[11] = HepG2 cell cytotoxicity, dose response, cytotoxicity control, plate reader, cherry-pick, antagonist series (AID 743416); type: functional, cell-based
[12] = LGR2 antagonists, dose response, cell-based, HEK293, CRE-luciferase reporter, cherry pick, set 2 (AID 743343); type: functional;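 further: transfected cells were stimulated with diluted bursicon conditioned medium after compound addition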
[13] = MC4R antagonists, dose response, counter-screen for LGR2 antagonist project, cell-based, plate reader, cherry pick (AID 743444); type: functional;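 further: transfected HEK 293 cells stimulated with alpha-MSH peptide; potency of inhibitors of the alpha-MSH evoked signal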
[14] = biological target: T2, Histone-lysine N-methyltransferase NSD2 (Homo sapiens, UniProt O96028); type: biochemical
T2 sequence (O96028 whole entry): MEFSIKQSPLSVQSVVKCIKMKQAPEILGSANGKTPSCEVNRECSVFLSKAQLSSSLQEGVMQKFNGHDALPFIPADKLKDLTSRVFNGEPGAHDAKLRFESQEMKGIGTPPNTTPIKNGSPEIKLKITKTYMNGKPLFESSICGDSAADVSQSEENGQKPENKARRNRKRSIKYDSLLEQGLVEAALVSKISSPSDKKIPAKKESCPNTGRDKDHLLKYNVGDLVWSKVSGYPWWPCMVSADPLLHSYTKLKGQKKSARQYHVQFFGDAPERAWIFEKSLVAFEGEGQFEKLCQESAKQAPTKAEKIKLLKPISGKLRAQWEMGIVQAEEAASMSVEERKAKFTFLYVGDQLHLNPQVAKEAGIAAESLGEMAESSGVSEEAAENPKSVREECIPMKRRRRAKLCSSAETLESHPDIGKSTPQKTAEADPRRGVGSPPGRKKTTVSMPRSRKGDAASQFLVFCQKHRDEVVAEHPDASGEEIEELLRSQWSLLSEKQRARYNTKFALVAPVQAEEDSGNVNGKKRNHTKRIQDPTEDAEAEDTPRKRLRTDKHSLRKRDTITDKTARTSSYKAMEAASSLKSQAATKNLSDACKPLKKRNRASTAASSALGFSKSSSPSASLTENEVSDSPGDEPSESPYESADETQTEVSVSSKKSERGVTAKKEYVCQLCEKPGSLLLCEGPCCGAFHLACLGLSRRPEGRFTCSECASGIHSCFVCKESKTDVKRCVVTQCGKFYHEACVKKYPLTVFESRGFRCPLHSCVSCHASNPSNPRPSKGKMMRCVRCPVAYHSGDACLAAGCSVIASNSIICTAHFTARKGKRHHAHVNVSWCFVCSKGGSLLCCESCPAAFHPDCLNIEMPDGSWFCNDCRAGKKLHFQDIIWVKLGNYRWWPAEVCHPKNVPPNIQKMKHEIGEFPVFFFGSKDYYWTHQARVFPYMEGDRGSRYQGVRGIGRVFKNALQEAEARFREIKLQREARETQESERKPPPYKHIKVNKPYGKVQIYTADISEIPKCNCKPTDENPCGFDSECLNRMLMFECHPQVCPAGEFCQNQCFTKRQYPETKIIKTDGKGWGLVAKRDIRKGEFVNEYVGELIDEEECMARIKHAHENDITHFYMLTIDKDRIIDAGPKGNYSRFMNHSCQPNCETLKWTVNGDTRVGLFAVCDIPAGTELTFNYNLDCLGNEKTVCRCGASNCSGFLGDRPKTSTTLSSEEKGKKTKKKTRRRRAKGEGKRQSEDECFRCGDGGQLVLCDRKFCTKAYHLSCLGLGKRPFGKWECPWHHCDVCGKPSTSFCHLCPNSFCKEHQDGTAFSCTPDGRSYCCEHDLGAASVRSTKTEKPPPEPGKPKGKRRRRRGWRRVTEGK

Estrogen receptor beta [15] = biological target: T3, Estrogen receptor beta (Homo sapiens, UniProt Q92731);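 further: recombinant ER-beta bound to coactivator SRC1 peptide in presence of estradiol agonist; inhibitors block coactivator peptide binding and lower the FRET signal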
T3 sequence (Q92731 whole entry): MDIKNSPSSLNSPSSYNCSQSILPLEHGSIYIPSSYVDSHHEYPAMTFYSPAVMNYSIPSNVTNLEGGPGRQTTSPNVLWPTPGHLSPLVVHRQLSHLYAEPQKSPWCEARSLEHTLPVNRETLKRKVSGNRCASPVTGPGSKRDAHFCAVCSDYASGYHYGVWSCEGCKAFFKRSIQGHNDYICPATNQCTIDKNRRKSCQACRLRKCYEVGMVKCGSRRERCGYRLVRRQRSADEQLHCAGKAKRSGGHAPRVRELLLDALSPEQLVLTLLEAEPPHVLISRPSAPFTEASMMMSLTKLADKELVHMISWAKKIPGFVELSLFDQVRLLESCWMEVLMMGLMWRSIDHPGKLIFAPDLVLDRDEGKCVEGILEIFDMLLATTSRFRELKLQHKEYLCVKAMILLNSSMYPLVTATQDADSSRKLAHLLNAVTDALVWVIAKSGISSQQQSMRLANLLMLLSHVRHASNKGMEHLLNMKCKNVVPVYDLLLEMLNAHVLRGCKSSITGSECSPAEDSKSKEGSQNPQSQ

Estrogen receptor beta [16] = biological target: T3, Estrogen receptor beta; assay: ERβ–SRC-3 coactivator interaction inhibitors, confirmation, orthogonal assay, biochemical, ELISA, streptavidin-HRP readout (AID 1060)
[17] = biological target: T4, Carboxy-terminal domain RNA polymerase II polypeptide A small phosphatase 1 (Homo sapiens, UniProt Q9GZU7); assay: inhibitors of CTDSP1, concentration-response testing, biochemical assay, absorbance-based, actives from ultra-high-throughput screening (AID 540297); type: functional
T4 sequence (Q9GZU7 whole entry): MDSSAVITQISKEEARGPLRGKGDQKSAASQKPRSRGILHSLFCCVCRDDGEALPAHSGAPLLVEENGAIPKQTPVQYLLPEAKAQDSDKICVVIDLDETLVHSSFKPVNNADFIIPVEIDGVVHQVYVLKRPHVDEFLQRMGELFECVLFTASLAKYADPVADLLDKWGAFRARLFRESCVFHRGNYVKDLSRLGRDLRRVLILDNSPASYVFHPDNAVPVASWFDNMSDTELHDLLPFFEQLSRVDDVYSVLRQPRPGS

[18] = biological target: T5, Microphthalmia-associated transcription factor (Homo sapiens, UniProt O75030); assay: TRPM1 promoter luciferase signal decrease, dose response, MITF inhibitor project, cell-based, SK-MEL-5, cherry-picked, set 3 (AID 493073); type: functional
T5 sequence (O75030 whole entry): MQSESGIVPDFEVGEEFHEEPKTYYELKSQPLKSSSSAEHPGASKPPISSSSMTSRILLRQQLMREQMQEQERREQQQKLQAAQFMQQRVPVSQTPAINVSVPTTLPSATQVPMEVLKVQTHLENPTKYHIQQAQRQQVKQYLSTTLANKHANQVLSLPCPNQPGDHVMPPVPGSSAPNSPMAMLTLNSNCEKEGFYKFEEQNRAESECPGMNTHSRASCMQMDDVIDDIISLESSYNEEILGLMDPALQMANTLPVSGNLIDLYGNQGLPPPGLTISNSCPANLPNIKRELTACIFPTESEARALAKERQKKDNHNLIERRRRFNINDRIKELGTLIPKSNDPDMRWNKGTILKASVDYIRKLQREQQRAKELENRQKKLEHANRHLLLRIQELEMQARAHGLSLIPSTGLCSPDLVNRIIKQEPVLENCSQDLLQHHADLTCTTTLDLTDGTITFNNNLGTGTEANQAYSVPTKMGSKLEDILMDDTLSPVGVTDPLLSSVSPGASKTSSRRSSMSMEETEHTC

[19] = A549 cell cytotoxicity, dose response, cytotoxicity control, plate reader, cherry-pick, antagonist series (AID 743412); type: functional, cell-based
[20] = Luminescence Cell-Based Dose Confirmation HTS to Identify Activators of 5'UTR Stem-Loop Driven Alpha-Synuclein mRNA Translation in H4 Neuroglioblastoma Cells. [Related pubchem assays: 1829 (Project Summary), 1814 (Primary HTS)]; type: functional
[21] = Luminescence Cell-Based Dose Response HTS to Identify Activators of Luciferase Translation or Activity in H4 […] Cells. [Related pubchem assays: 1829 (Project Summary), 1814 (Primary HTS)]; type: functional
H4 = assay: Luminescence Cell-Based Dose Response HTS to Identify Activators of 5'UTR Stem-Loop Driven Prion Protein mRNA Translation in H4 Neuroglioblastoma Cells. [Related pubchem assays: 1829 (Project Summary), 1814 (Primary HTS)]; type: functional; conditions: Homo sapiens
Fatty acid synthase [22] = biological target: T6, Fatty acid synthase (Homo sapiens, UniProt P49327); assay: FAS thioesterase domain inhibitors, dose response, biochemical, endpoint fluorescence intensity, uHTS hits (AID 624327); type: functional;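 further: fluorescence from hydrolysis of an O-methyl fluorescein acyl ester substrate by the enzyme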
T6 sequence (P49327 whole entry, the tested form may be a part): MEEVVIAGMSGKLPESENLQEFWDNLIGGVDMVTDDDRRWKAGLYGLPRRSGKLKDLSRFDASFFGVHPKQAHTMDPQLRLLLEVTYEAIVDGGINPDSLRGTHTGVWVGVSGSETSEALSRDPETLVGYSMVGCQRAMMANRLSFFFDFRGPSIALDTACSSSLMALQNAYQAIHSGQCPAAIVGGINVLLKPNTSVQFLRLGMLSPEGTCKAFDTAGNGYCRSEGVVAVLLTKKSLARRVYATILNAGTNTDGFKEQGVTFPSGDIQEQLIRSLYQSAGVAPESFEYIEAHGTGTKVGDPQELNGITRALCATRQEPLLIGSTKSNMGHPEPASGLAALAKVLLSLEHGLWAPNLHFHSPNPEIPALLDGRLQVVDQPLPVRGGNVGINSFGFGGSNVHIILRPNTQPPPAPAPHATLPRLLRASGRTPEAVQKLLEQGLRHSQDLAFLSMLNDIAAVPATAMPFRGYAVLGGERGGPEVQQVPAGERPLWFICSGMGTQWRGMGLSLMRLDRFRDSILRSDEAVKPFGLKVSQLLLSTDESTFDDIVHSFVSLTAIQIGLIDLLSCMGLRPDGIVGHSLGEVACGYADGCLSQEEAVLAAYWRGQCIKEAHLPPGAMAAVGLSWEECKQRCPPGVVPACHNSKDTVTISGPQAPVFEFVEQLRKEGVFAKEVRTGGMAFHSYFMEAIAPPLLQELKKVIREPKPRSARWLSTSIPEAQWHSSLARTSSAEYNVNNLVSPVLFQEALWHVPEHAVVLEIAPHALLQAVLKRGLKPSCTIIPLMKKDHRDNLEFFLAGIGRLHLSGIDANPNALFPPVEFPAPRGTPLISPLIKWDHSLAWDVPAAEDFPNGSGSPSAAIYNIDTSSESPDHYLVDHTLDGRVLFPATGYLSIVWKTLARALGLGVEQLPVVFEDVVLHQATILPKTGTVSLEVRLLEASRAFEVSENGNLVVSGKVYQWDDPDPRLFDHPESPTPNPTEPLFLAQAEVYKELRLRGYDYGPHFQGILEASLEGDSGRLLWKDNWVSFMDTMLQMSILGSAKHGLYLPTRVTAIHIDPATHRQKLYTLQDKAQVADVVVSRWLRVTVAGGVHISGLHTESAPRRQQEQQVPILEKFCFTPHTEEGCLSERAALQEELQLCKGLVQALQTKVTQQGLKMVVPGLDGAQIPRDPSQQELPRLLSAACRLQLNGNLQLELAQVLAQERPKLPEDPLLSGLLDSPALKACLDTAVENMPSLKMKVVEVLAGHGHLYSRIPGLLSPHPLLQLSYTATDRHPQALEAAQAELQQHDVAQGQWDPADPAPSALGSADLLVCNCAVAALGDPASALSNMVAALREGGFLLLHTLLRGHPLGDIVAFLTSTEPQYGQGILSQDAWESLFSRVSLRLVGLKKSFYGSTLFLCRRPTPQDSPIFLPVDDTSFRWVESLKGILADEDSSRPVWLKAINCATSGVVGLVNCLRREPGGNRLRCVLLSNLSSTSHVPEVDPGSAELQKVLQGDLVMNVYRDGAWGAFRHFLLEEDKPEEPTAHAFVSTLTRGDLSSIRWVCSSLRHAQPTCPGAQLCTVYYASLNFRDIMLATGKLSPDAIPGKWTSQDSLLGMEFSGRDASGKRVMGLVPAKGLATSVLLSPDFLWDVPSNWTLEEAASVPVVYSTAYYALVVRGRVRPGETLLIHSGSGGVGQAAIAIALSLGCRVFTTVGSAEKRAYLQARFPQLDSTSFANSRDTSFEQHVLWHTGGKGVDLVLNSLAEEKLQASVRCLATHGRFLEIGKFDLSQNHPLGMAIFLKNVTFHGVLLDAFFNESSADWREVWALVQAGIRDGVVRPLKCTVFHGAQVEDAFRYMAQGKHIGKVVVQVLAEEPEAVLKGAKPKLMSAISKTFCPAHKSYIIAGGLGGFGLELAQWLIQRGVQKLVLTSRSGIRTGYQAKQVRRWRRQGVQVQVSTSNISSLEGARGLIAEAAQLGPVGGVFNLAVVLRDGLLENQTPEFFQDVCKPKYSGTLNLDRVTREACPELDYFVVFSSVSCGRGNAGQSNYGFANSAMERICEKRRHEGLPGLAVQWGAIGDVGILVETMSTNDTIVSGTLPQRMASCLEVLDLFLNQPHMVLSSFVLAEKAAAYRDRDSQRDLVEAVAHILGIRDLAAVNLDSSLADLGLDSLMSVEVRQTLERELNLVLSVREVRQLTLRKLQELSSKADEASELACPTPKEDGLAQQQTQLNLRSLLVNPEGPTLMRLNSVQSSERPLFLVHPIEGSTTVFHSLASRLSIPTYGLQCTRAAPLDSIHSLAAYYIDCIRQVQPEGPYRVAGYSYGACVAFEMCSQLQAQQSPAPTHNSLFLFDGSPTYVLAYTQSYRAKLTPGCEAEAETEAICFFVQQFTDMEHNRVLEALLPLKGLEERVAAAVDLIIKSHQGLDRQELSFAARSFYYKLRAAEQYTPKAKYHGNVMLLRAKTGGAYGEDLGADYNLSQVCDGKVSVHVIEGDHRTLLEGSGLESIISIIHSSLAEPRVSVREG

Fatty acid synthase [23] = biological target: T6, Fatty acid synthase; assay: FAS thioesterase domain inhibitors, dose response, biochemical, kinetic fluorescence intensity (AID 624326); type: functional;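 further: rate of fluorescence rise from hydrolysis of a fluorogenic O-methyl fluorescein ester substrate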
[24] = HEK293 cell cytotoxicity, dose response, cytotoxicity control, plate reader, cherry-picked samples (AID 743446); type: functional, cell-based

Mitogen-activated protein kinase 10, sequence (P53779 whole entry): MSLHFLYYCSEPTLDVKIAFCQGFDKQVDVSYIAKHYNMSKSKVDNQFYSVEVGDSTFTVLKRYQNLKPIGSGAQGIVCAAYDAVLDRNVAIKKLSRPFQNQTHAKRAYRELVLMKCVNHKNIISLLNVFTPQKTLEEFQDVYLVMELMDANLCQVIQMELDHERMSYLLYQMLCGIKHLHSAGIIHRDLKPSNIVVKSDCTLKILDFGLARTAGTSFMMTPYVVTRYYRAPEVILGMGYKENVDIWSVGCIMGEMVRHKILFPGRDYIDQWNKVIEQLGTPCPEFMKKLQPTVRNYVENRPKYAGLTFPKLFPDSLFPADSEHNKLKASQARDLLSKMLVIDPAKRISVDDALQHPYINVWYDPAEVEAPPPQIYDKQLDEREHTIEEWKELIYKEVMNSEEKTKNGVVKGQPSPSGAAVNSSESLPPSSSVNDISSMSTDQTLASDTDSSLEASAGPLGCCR

## CCOC(=O)c1cnc2ccc(Cl)cc2c1N1CCN(C)CC1
[1]
  IC50: 25.9 µM (not active)

## c1ccc(-c2nc(NCc3cccnc3)c3oc4ccccc4c3n2)cc1
[2]
  CC50: 28.9 µM (active)
[3]
  EC50: 14.2 µM (active)
[4]
  EC50: 2.22 µM (active)
[5]
  EC50: 15.8 µM (active)
[6]
  EC50: > 60 µM (not active)
[7]
  EC50: > 260 µM (inactive)

## CN1CCN(CC(=O)Nc2sc3c(c2C#N)CCC(C(C)(C)C)C3)CC1 (stereo unspecified)
[3]
  EC50: > 20 µM (not active)
[5]
  EC50: > 20 µM (not active)

## COc1ccc(C(=O)Nc2ccc3ccccc3c2)cc1
[8]
  EC50: 9.12 µM (inconclusive)
[9]
  EC50: 10.4 µM (inconclusive)
[10]
  EC50: 6.82 µM (active)
[11]
  AC50: 45.6 µM (active)
[12]
  AC50: 5.78 µM (active)
[13]
  AC50: 8.43 µM (active)

## Cc1nc(NCc2ccco2)c(C#N)c2c1COC(C)(C)C2
[1]
  IC50: 37.5 µM (not active)

## CCNCCC(CCC(C)C)c1ccc2c(c1)OCO2 (stereo unspecified)
[14]
  AC50: > 20 µM (inactive)

## CCN(CC)CCCNc1cc(C)c(C#N)c2nc3ccccc3n12
[14]
  AC50: > 20 µM (inactive)

## O=C(COC(=O)c1ccccc1)NCc1ccco1
Estrogen receptor beta [15]
  IC50: 5.54 µM (active)
Estrogen receptor beta [16]
  IC50: 0.351 µM (not active)
[17]
  IC50: 11.1 µM (active)

## Cc1ccc(-n2[nH]c(=O)c(-c3ccccn3)c2C)cc1
[9]
  EC50: 0.571 µM (active)
[10]
  EC50: 2 µM (active)
[18]
  AC50: 3.23 µM (active)
[19]
  AC50: > 52 µM (inactive)
[12]
  AC50: 1.61 µM (active)
[13]
  AC50: 2.08 µM (active)

## N#CC1=C(N)NC(SCc2ccc(F)cc2)=C(C#N)C12CCCCC2
[20]
  EC50: > 120 µM (not active)
[21]
  EC50: > 120 µM (not active)
H4
  EC50: > 120 µM (not active)
[3]
  EC50: 10.4 µM (active)
[5]
  EC50: 9.03 µM (active)

## CN(Cc1ccc(C(C)(C)C)cc1)C(=O)Cc1ccc(S(=O)(=O)N2CCOCC2)s1
Fatty acid synthase [22]
  IC50: 0.424 µM (active)
Fatty acid synthase [23]
  IC50: 0.291 µM (active)

## O=C(Nc1nnc(C2CC2)s1)c1ccccn1
[19]
  AC50: 7.92 µM (active)
[11]
  AC50: 8.23 µM (active)
[12]
  AC50: 18.3 µM (active)
[13]
  AC50: 17.1 µM (active)
[24]
  AC50: 19 µM (active)

## COc1ccc(/C=C(\NC(=O)c2ccc([N+](=O)[O-])cc2)C(=O)NCCCN2CCOCC2)cc1
Fatty acid synthase [22]
  IC50: 4.51 µM (active)
Fatty acid synthase [23]
  IC50: 2.95 µM (active)
